Reference: ChEMBL document CHEMBL4177534, “Discovery and evaluation of 1H-pyrrolo[2,3-b]pyridine based selective and reversible small molecule BTK inhibitors for the treatment of rheumatoid arthritis” (Bioorg Med Chem Lett, 2017)

Columns and labels:
[1] = target: Tyrosine-protein kinase BTK (Mus musculus, UniProt P35991); assay: Inhibition of C57BL/6J mouse BTK assessed as decrease in anti-mouse IgM antibody stimulated BCR mediated CD69 upregulation preincubated for 30 mins followed by antibody challenge after 18 to 24 hrs by flow cytometry
Sequence of Tyrosine-protein kinase BTK (Mus musculus, UniProt P35991) (P35991 whole entry): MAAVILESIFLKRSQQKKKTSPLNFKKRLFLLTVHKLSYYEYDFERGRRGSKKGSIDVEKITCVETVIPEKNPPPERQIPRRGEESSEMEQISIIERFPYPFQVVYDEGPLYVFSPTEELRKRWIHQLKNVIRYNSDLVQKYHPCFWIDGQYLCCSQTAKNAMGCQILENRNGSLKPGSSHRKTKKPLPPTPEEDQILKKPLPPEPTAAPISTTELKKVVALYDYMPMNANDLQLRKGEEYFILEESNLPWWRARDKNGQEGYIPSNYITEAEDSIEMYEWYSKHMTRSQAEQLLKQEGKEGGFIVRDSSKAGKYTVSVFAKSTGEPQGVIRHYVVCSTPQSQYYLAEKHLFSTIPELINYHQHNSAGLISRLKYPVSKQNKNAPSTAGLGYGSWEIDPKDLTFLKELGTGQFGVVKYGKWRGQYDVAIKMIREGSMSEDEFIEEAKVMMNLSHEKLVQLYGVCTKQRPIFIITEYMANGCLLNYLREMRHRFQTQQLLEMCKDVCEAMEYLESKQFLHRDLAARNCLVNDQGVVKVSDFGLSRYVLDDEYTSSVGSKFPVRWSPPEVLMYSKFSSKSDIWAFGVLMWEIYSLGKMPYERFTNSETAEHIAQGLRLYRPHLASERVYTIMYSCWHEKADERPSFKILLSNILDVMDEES

[2] = Metabolic stability in mouse liver microsomes assessed as metabolism rate; format: ADME, microsome
[3] = Metabolic stability in human liver microsomes assessed as metabolism rate; format: ADME, microsome
[4] = Metabolic stability in rat liver microsomes assessed as metabolism rate; format: ADME, microsome
[5] = target: Tyrosine-protein kinase BTK (Homo sapiens, UniProt Q06187); assay: Inhibition of recombinant human full length BTK preincubated for 10 mins followed by Tk-biotin peptide substrate addition after 90 mins by TR-FRET assay
Sequence of Tyrosine-protein kinase BTK (Homo sapiens, UniProt Q06187) (Q06187 whole entry): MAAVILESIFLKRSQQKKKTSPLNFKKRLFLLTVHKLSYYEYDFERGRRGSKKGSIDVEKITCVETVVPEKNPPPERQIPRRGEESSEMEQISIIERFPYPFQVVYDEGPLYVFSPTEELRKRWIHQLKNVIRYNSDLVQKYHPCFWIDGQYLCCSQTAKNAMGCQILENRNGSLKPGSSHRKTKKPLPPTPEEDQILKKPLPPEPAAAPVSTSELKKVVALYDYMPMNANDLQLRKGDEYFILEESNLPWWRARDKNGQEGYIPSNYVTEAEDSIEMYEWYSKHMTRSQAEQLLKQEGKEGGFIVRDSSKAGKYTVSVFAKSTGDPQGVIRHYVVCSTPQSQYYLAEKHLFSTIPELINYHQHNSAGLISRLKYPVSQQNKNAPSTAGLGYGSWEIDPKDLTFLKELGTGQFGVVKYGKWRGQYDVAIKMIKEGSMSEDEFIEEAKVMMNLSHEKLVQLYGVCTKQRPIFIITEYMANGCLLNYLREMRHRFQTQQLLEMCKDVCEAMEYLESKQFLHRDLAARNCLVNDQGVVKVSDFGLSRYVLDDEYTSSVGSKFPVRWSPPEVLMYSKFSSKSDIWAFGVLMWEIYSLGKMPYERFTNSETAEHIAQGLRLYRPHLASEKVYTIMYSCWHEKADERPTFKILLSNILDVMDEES

[6] = Equilibrium aqueous solubility of the compound at pH 7.4; format: physicochemical
[7] = Equilibrium aqueous solubility of the compound at pH 4; format: physicochemical

IC50 [1] [nM]	Drug metabolism [2] [nmol/min/mg]	Drug metabolism [3] [nmol/min/mg]	Drug metabolism [4] [nmol/min/mg]	IC50 [5] [nM]	solubility thermodynamic [6] [µM]	solubility thermodynamic [7] [µM]	SMILES
14.7	0.04	< 0.04	0.04	1.1			CC1(O)CN(C(=O)N2CC=C(c3cc4c(-c5cccc(N6CCOc7cc(C8CC8)cc(F)c7C6=O)c5CO)ccnc4[nH]3)CC2)C1
14				5.4			CN1CCN(Cc2ccc(-c3cc4c(-c5cccc(N6CCOc7cc(C8CC8)ccc7C6=O)c5CO)ccnc4[nH]3)nc2)CC1
81				6.8			CC1(O)CCN(Cc2ccc(-c3cc4c(-c5cccc(N6CCOc7cc(C8CC8)ccc7C6=O)c5CO)ncnc4[nH]3)cc2)CC1
				21			Cc1c(-c2ncnc3[nH]c(-c4ccc(CN5CCN(C)CC5)cc4)cc23)cccc1N1CCOc2cc(C3CC3)ccc2C1=O
54				5.1			CN1CC(Oc2ccc(-c3cc4c(-c5cccc(N6CCOc7cc(C8CC8)ccc7C6=O)c5CO)ncnc4[nH]3)cc2)C1
48				6.5			CN1CCN(Cc2ccc(-c3cc4c(-c5cccc(N6CCOc7cc(C8CC8)ccc7C6=O)c5CO)ncnc4[nH]3)cc2)CC1
36							CN1CCN(c2ccc(-c3cc4c(-c5cccc(N6CCOc7cc(C8CC8)ccc7C6=O)c5CO)ncnc4[nH]3)cc2)CC1
5.5	0.06	< 0.04	0.15				CN1CCN(Cc2ccc(-c3cc4c(-c5cccc(N6CCOc7cc(C8CC8)cc(F)c7C6=O)c5CO)ccnc4[nH]3)nc2)CC1
59				8.3			O=C1c2ccc(C3CC3)cc2OCCN1c1cccc(-c2ncnc3[nH]c(-c4ccc(CN5CCOCC5)cc4)cc23)c1CO
8.3	0.1	0.05	< 0.04		< 20	< 100	O=C1c2c(F)cc(C3CC3)cc2OCCN1c1cccc(-c2ccnc3[nH]c(-c4cnn(C5CCN(C6COC6)CC5)c4)cc23)c1CO
17.7	0.09	0.07	0.05	5.5			CS(=O)(=O)N1CC=C(c2cc3c(-c4cccc(N5CCOc6cc(C7CC7)cc(F)c6C5=O)c4CO)ccnc3[nH]2)CC1
5.8	0.05	0.05	0.05				CN(C)C(=O)N1CC=C(c2cc3c(-c4cccc(N5CCOc6cc(C7CC7)cc(F)c6C5=O)c4CO)ccnc3[nH]2)CC1
51.2	< 0.04	0.07	< 0.04				N#CCC(=O)N1CC=C(c2cc3c(-c4cccc(N5CCOc6cc(C7CC7)cc(F)c6C5=O)c4CO)ccnc3[nH]2)CC1
51				2.6			CN1CCC(Oc2ccc(-c3cc4c(-c5cccc(N6CCOc7cc(C8CC8)ccc7C6=O)c5CO)ncnc4[nH]3)cc2)CC1
32							CN1CCC(n2cc(-c3cc4c(-c5cccc(N6CCOc7cc(C8CC8)ccc7C6=O)c5CO)ncnc4[nH]3)cn2)CC1
75	0.1	0.04	0.09		< 20	< 100	CC(C)(O)CN1CC=C(c2cc3c(-c4cccc(N5CCOc6cc(C7CC7)cc(F)c6C5=O)c4CO)ccnc3[nH]2)CC1
